These results are taken from paper PMC3753068 (Small (Weinheim an der Bergstrasse, Germany), 2012).

As usually defined, the half-life is the time in which the quantity being followed falls by half.

Where a SMILES comes first, the peptide text is derived from it. The star is where a group is joined. X1 = O=C(CCCCCCCCCCS)NCCCOCCOCCOCCCN*

This series can be described thus: Stability of peptides in human serum. Format: in vitro ADME.

`CC(=O)N[C@@H](CC(=O)O)C(=O)N[C@@H](CC(C)C)C(=O)N[C@@H](Cc1c[nH]c2ccccc12)C(=O)N[C@@H](CCCCN)C(=O)N[C@@H](CC(C)C)C(=O)NCCCOCCOCCOCCCNC(=O)CCCCCCCCCCS` [Compound 1] (Ac-DLWKL-X1; C-terminus assumed) registered a half-life of 17.5 min.
